Test results taken from ChEMBL document CHEMBL1155305, “Discovery of a new series of monoamine reuptake inhibitors, the 1-amino-3-(1H-indol-1-yl)-3-phenylpropan-2-ols” (Bioorg Med Chem Lett, 2009).
The source made the active and inactive calls. The rule behind the calls is not given here.

Assays:
[1] = target: T1, Sodium-dependent noradrenaline transporter (Homo sapiens, UniProt P23975); test: Inhibition of norepinephrine reuptake at human NET expressed in MDCK-Net6 cells at 1000 nM; type: cell-based
[2] = target: Sodium-dependent serotonin transporter (Homo sapiens, UniProt P31645); type: cell-based, JAR
Description: Inhibition of serotonin uptake at human SERT expressed in JAR cells

MDCK-Net6 = test: Selectivity index, ratio of IC50 for human SERT to IC50 for human NET uptake in MDCK-Net6 cell; type: cell-based
[3] = target: Sodium-dependent dopamine transporter (Homo sapiens) (UniProt Q01959); test: Displacement of [3H]WIN-35428 from human recombinant DAT expressed in CHO cells at 1 uM; type: cell-based
[4] = target: T1, Sodium-dependent noradrenaline transporter
CYP3A4 = CYP3A4 (Homo sapiens, UniProt P08684); test: Inhibition of CYP3A4 at 3 uM; type: ADME
[5] = Half life in rat liver microsomes at 1 uM; type: ADME, Microsome
[6] = Half life in human liver microsomes at 1 uM; type: ADME, Microsome
CYP2D6 = CYP2D6 (Homo sapiens, UniProt P10635); test: Inhibition of CYP2D6 at 3 uM; type: ADME
[7] = Half life in monkey liver microsomes at 1 uM; type: ADME, Macaca mulatta, Microsome; conditions: rhesus monkey
CYP2C9 = CYP2C9 (Homo sapiens, UniProt P11712); test: Inhibition of CYP2C9 at 3 uM; type: ADME
[8] = Membrane permeability by PAMPA assay; type: ADME; conditions: read-out: permeability
[9] = Aqueous solubility at pH 7.4; type: physicochemical
[10] = Half life in dog liver microsomes at 1 uM; type: ADME, Canis lupus familiaris, Microsome
[11] = target: 5-hydroxytryptamine receptor 2A (Homo sapiens) (UniProt P28223); test: Binding affinity to 5-HT2A receptor
[12] = Binding affinity to alpha2 adrenergic receptor
[13] = target: T2, 5-hydroxytryptamine receptor 1A (Homo sapiens) (UniProt P08908); test: Binding affinity to 5-HT1A receptor
T2 sequence (whole entry): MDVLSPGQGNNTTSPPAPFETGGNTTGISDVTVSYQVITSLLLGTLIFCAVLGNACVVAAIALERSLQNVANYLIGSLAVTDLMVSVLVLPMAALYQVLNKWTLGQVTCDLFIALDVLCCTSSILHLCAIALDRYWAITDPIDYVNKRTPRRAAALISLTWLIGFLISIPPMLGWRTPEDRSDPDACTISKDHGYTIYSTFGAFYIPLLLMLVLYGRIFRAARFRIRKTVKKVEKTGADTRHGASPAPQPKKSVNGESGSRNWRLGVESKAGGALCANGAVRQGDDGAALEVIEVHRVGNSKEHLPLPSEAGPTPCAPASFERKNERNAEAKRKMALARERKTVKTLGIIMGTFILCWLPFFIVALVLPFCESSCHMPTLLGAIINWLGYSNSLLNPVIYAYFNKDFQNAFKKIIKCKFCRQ

[14] = Binding affinity to alpha1 adrenergic receptor

Chain of Sodium-dependent serotonin transporter (P31645 whole entry): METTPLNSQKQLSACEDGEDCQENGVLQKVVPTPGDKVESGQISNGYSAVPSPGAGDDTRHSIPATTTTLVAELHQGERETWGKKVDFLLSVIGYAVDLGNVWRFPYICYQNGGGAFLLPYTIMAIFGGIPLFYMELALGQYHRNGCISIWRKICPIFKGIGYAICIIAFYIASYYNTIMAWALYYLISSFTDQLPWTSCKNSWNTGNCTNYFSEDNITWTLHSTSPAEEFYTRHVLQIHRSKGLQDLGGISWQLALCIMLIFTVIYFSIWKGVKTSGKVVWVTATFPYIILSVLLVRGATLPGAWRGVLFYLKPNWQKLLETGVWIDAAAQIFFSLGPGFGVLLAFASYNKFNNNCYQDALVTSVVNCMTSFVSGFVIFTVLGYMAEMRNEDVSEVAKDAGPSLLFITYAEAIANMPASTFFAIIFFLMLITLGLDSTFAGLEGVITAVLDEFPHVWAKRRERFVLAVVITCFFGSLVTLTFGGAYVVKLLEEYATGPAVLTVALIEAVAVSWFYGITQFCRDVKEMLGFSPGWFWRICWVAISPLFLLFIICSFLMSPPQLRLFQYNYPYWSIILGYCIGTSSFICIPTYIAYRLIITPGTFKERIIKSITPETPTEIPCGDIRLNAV
T1 sequence (P23975 whole entry): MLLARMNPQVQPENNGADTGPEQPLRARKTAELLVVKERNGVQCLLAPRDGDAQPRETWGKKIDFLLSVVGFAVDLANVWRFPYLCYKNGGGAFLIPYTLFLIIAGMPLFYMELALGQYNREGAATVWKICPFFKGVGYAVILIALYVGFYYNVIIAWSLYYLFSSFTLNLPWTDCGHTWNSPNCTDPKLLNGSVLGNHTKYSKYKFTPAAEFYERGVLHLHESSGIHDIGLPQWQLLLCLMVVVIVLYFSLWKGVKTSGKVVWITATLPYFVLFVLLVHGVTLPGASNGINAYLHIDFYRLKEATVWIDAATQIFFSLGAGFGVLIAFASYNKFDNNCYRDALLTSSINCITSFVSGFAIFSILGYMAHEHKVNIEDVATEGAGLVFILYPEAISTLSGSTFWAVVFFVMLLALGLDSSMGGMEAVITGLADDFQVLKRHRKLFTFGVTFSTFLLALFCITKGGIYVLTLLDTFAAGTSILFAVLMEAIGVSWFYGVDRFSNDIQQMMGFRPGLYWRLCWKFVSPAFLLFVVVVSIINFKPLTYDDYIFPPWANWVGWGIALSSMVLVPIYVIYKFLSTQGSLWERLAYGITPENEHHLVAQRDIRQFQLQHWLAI
Chain of Sodium-dependent dopamine transporter (Homo sapiens) (Q01959 whole entry): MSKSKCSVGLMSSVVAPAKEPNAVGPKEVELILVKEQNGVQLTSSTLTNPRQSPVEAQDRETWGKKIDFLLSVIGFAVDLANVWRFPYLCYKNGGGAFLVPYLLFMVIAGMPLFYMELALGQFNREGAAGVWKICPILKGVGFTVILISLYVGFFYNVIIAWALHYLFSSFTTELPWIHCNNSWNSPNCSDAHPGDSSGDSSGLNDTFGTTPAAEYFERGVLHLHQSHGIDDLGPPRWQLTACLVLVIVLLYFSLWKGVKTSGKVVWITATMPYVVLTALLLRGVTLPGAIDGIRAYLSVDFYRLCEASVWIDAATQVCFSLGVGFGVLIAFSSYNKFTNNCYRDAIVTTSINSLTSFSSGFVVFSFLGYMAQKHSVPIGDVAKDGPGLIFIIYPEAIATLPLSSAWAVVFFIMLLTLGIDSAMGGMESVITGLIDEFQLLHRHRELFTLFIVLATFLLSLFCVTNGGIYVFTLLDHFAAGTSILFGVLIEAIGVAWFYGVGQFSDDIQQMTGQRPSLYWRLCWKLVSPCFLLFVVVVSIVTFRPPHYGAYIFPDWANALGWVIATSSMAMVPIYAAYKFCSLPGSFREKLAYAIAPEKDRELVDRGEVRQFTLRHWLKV
Chain of CYP2D6 (P10635 whole entry): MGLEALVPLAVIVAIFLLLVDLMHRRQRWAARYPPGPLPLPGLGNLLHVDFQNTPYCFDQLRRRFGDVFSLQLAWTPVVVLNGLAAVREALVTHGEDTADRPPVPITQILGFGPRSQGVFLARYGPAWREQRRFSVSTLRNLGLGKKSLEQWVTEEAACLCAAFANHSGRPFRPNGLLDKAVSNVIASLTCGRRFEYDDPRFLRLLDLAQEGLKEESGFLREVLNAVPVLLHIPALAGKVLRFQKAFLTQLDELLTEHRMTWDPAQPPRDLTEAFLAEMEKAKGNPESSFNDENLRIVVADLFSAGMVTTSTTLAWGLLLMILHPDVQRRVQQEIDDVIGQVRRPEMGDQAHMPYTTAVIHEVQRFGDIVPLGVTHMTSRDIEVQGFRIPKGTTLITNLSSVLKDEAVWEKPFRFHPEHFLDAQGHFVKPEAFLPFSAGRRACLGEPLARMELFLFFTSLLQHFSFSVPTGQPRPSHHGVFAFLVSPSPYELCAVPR
Chain of CYP3A4 (P08684 whole entry): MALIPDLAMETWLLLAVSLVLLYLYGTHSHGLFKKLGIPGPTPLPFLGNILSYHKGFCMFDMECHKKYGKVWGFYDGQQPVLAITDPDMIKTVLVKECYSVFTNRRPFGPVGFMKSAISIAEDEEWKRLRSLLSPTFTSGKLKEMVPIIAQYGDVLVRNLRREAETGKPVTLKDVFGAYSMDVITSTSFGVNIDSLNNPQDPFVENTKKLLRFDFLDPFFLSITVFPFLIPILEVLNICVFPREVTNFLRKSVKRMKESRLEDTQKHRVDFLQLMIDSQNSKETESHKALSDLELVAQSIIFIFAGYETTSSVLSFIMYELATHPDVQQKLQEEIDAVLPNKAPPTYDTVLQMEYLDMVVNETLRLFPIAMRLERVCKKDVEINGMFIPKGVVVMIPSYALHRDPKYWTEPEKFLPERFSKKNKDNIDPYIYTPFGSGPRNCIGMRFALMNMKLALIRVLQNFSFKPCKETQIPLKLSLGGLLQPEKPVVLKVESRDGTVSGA
Chain of 5-hydroxytryptamine receptor 2A (Homo sapiens) (P28223 whole entry): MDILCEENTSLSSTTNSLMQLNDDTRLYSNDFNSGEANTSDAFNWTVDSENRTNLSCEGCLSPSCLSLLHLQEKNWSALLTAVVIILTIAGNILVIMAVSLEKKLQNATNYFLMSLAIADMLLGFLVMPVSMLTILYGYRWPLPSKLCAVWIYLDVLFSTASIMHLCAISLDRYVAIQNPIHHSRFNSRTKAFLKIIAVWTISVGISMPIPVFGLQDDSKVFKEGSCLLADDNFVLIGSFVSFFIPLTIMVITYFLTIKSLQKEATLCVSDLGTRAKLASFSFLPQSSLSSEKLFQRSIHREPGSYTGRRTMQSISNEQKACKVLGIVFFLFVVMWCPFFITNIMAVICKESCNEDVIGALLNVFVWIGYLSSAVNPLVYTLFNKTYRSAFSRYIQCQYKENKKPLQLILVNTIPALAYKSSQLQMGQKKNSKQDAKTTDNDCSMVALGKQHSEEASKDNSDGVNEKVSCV
Chain of CYP2C9 (P11712 whole entry): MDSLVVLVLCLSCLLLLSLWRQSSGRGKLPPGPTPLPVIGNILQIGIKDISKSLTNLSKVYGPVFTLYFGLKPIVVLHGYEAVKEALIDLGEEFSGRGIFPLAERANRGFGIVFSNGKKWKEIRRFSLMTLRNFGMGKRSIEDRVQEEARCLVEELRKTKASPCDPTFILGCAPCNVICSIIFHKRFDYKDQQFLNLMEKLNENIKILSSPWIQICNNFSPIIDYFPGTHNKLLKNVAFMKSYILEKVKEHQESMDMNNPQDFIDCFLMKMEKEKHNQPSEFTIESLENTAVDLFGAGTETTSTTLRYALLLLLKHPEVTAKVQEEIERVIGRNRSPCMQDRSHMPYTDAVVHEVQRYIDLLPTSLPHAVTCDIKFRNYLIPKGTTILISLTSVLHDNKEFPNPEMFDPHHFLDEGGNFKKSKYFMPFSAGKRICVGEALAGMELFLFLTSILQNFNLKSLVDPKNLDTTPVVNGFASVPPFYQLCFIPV

Structure (SMILES)	inhibition [1] [%]	IC50 [2] [µM]	inhibition [3] [%]	further results
NC[C@H](O)[C@H](c1ccccc1)n1ccc2cc(F)ccc21 (racemic)	32	–	–	–
CN1CCN(C[C@H](O)[C@H](c2ccccc2)n2ccc3ccccc32)CC1 (racemic)	5	–	–	–
CNC[C@H](O)[C@@H](c1ccccc1)n1ccc2ccccc21 (stereo in doubt) [listing 1 of 2 here]	–	0.074	–	–
CC(C)NC[C@H](O)[C@H](c1ccccc1)n1ccc2ccccc21 (racemic)	13	–	–	–
CCNC[C@H](O)[C@H](c1ccccc1)n1ccc2cc(F)ccc21 (racemic)	11	–	–	–
Cc1cn([C@@H](c2ccccc2)[C@@H](O)CN)c2ccccc12 (racemic)	–	0.299	6	Ratio IC50 (MDCK-Net6): 1; IC50 [4]: 0.321 µM
CNC[C@H](O)[C@H](c1ccccc1)n1ccc2ccccc21	–	0.918	0	–
CNC[C@H](O)[C@H](c1ccccc1)n1ccc2cc(OC)ccc21 (racemic)	–	0.031	2	Ratio IC50 (MDCK-Net6): 0.1; IC50 [4]: 0.23 µM
CNC[C@@H](O)[C@@H](c1ccccc1)n1ccc2ccccc21	–	0.161	31	–
NC[C@H](O)[C@H](c1ccccc1)n1ccc2ccccc21 (racemic)	–	0.05	7	Ratio IC50 (MDCK-Net6): 0.1
CN(C)C[C@H](O)[C@H](c1ccccc1)n1ccc2ccccc21 (racemic)	25	–	–	–
O[C@@H](CNCc1ccccc1)[C@H](c1ccccc1)n1ccc2ccccc21 (racemic)	26	–	–	–
OC1(c2ccc(Cl)cc2)c2ccccc2C2=NCCN21 (stereo not given)	–	–	22.1	–
CCNC[C@H](O)[C@H](c1ccccc1)n1ccc2ccccc21 (racemic)	–	0.298	–	Ratio IC50 (MDCK-Net6): 0.2; IC50 [4]: 1.2 µM
CNC[C@@H](O)[C@H](c1ccccc1)n1ccc2ccccc21 (stereo in doubt) [listing 1 of 2 here]	–	0.126	–	–
O[C@@H](CNCc1ccncc1)[C@H](c1ccccc1)n1ccc2ccccc21 (racemic)	24	–	–	–

Structure (SMILES)	inhibition [1] [%]	IC50 [2] [µM]	inhibition [3] [%]	further results
O[C@@H](CN1CCNCC1)[C@H](c1ccccc1)n1ccc2ccccc21 (racemic)	34	–	–	–
CNC[C@H](O)[C@@H](c1ccccc1)n1ccc2ccccc21 (stereo in doubt) [listing 2 of 2 here]	–	–	4	–
CNC[C@@H](O)[C@H](c1ccccc1)n1ccc2ccccc21 [listing 1 of 2 here]	–	0.358	–	inhibition at 3 µM (CYP3A4): < 20%; half-life at 1 µM [5]: 9.8 min; half-life at 1 µM [6]: > 60 min; inhibition at 3 µM (CYP2D6): < 20%; half-life at 1 µM [7]: 9.7 min; inhibition at 3 µM (CYP2C9): < 20%; Papp [8]: 46 nm/s; solubility [9]: > 0.05 mg/mL; half-life at 1 µM [10]: 15.9 min
CNC[C@H](O)[C@@H](c1ccccc1)n1ccc2ccccc21 [listing 1 of 2 here]	–	0.144	–	–
CCN(C)C[C@H](O)[C@H](c1ccccc1)n1ccc2ccccc21 (racemic)	38	–	–	–
CNC[C@H](O)[C@@H](c1ccccc1)n1ccc2ccccc21 [listing 2 of 2 here]	–	–	18	–
O[C@@H](CN1CCOCC1)[C@H](c1ccccc1)n1ccc2ccccc21 (racemic)	18	–	–	–
CNC[C@@H](O)[C@H](c1ccccc1)n1ccc2ccccc21 [listing 2 of 2 here]	–	–	19	Activity [11]: inactive; Activity [12]: inactive; Activity [13]: inactive; Activity [14]: inactive
CNC[C@H](O)[C@H](c1ccccc1)n1cc(C)c2ccccc21 (racemic)	–	0.251	0	–
CNC[C@H](O)[C@H](c1ccccc1)n1ccc2cc(F)ccc21 (racemic)	–	0.095	–	Ratio IC50 (MDCK-Net6): 1; IC50 [4]: 0.118 µM
CNC[C@H](O)[C@H](c1ccccc1)n1ccc2cc(Cl)ccc21 (racemic)	–	0.01	–	Ratio IC50 (MDCK-Net6): 0.2; IC50 [4]: 0.049 µM
O[C@@H](CNCC1CCCCC1)[C@H](c1ccccc1)n1ccc2ccccc21 (racemic)	41	2.83	–	–
CNC[C@@H](O)[C@H](c1ccccc1)n1ccc2ccccc21 (stereo in doubt) [listing 2 of 2 here]	–	–	7	–
CNC[C@H](O)[C@H](c1ccccc1)n1c(C)cc2ccccc21 (racemic)	45	–	–	–
CCNC[C@H](O)[C@H](c1ccccc1)n1cc(C)c2ccccc21 (racemic)	–	2.2	0	Ratio IC50 (MDCK-Net6): 2; IC50 [4]: 1.1 µM
